{"source": "patent US12404345B2", "about": "“Humanized antibodies against iRHOM2” (SCIRHOM GMBH, priority 2021, dated 2025)", "system": "PMA-induced release of endogenous IL-6R from human PBMCs from healthy donors", "experiment": "ELISA-based IL-6R release assay, PMA-induced, PBMCs from healthy donors", "assay_type": "cell-based", "details": "PBMC, Batimastat 10 μM, PMA 25 ng/ml, 24 hours", "method": "In the following study, ELISA-based IL-6R release assays were performed to analyze the inhibitory effects of the antibodies of the invention on PMA-induced release of endogenous IL-6R from primary human material obtained from healthy donors using peripheral blood mononuclear cells (PBMCs).\nIn brief, on day 1, Nunc black MaxiSorp® 96-well plates (Thermo Fisher Scientific, USA) were coated overnight with 100 μl per well of mouse anti-human IL-6R capture antibody (provided as part of the DuoSet ELISA kit) at 2 μg/ml TBS at 4° C. […]\nMeanwhile, the 96-well plates were centrifuged to pellet cells. […] Using an infinite M1000 (Tecan Group, Switzerland) microplate reader, the fluorescence of each well was collected at an excitation wavelength of 435 nm and an emission wavelength of 555 nm."}
{"smiles": "CNC(=O)[C@H](Cc1ccccc1)NC(=O)[C@H](CC(C)C)[C@H](CSc1cccs1)C(=O)NO", "note": "[Batimastat]", "values": [{"measurement": "inhibition at 10 µM", "value": 96.2, "unit": "%"}]}
